Reference: publication PMC2841647 (PLoS ONE, 2010)
Values joined by “and” are separate entries in the source; they are usually repeats but may differ in a detail not shown here. Equal entries are not always repeated. Where two headings read alike, the source gives them in different places. Where a SMILES comes first, the peptide text is derived from it. Bridges are numbered along the chain shown (N, C = ends).

Tests used:
human TrkB receptor = target: T1, human TrkB receptor (Homo sapiens, UniProt Q16620); assay: KIRA-ELISA (TrkB tyrosine phosphorylation) in TetOn-rhTrkB CHO cells; format: cell-based; details: for IC50 / ratio signal/background / EC50: TetOn-rhTrkB cells; for EC50: read-out: EC50, TrkB activation
T1 construct: expressed in transfected cells
Source text: (§1) The human recombinant TrkB receptor was fluorescently tagged at its C-terminus with the Enhanced cyan fluorescent protein (rhTrkB-ECFP) by cloning the full human TrkB sequence (kindly provided by G. M. Brodeur) into the pECFP-N1 expression vector (Clontech). For inducible expression, rhTrkB-ECFP was subcloned into the tetracycline-responsive (TetOn) vector pTRE2 (Clontech). Chinese Hamster Ovary cells stably expressing rhTrkB-ECFP (TetOn-rhTrkB cells), were produced by transfection of the pTRE2-rhTrkB-ECFP plasmid into CHO-K1 TetOn cells (Clontech) followed by clone selection in 0.25 mg/ml hygromycin B (Invitrogen) and 0.1 mg/ml geneticin (G418; Invitrogen). Resistant cells were selected based on both fluorescence intensity and KIRA-ELISA profile after an overnight incubation in presence of 1000 ng/ml doxycycline (Clontech). Cortical neurons were prepared and cultured from E16 mouse embryos as described previously. The nnr5 PC12-TrkA, nnr5 PC12-TrkB and nnr5 PC12-TrkC cells (kindly provided by M. V. Chao) are NGF non-responding mutant PC12 cells stably transfected with TrkA, TrkB and TrkC cDNA, respectively.
(§2) TrkB activity was quantified using the previously described KIRA-ELISA assay with slight modifications. Cortical neurons were seeded on polyornithin-coated flat-bottom 96-well culture plates (12×10^4 cells per well) and cultured eight days at 37°C in 5% CO2. TetOn-rhTrkB cells were seeded on flat-bottom 96-well culture plates (4×10^4 cells per well) and incubated overnight with 1000 ng/ml doxycycline (Figs. S1,S2) except when indicated. Fluorescence levels in TetOn-rhTrkB cells were verified before each assay. […] Assay was stopped by removing the medium on ice and membranes were solubilized using KIRA-ELISA solubilization buffer (NaCl 150 mM, Hepes 50 mM, Triton X-100 0.5%, thimerosal 0.01%, sodium orthovanadate 2 mM, supplemented with a cocktail of protease inhibitors) for 1 h at room temperature. Solubilized membranes were transferred for 2 h at room temperature onto ELISA microtiter plate (Nunc Maxisorp) pre-coated overnight at 4°C with appropriate antibodies [polyclonal anti-GFP (1∶5000, Clontech) for TetOn-rhTrkB, polyclonal anti-TrkB (1 µg/ml, Upstate) for cultured neurons and brain slices, for phosphorylation assays; monoclonal anti-GFP (1∶3000, Chemicon) for TetOn-rhTrkB, monoclonal anti-TrkB (1∶1000, BD Biosciences) for cultured neurons and brain slices, for total TrkB quantification]. […] Absorbance was read at 450 nm after addition of 3,3′,5′,5-tetramethyl-benzidine substrate (Sigma) and acidification with 1N hydrochloric acid.
(§3) Concentration-response and competition curves were obtained using an iterative least-squares method derived from that of Parker & Waud (1971). […] Concentration-response curves and Eadie-Hofstee plots were analyzed using two-way ANOVA. Significance over time in locomotor activity studies was given using two-way ANOVA followed by Bonferroni's post-hoc test. […] One-way ANOVA followed by post-hoc Dunnett's test was used to evaluate statistical significance compare to saline group in EPM and FST procedures. n represents the number of independent experiments.

[1] = target: T2, native TrkB receptors in cortical neurons (Mus musculus, UniProt P15209); assay: KIRA-ELISA (TrkB tyrosine phosphorylation) in primary cortical neurons; format: cell-based; details: for EC50: read-out: EC50, TrkB activation
T2 construct: cortical neurons naturally express TrkB receptors; endogenous in cells; host or cells: primary cortical neurons from E16 mouse embryos
Source text: as §1, §2, §3

nnr5 PC12 cells = assay: Morphological analysis of toxicity / cell death; format: cell-based; details: 72 hours after exposure to 10 µM
nnr5 PC12-TrkB cells = details: 48 h
mice [2] = assay: Elevated plus-maze (EPM); format: in vivo, mouse; details: vs saline
Protocol: (§4) Mice were treated as described above before being subjected to behavioral studies. Predictive estimation for anxiolytic properties of tat-cyclotraxin-B was assessed using open field and elevated plus-maze (EPM). Antidepressant-like action of tat-cyclotraxin-B was assessed with the forced-swim test (FST). Effects of acute treatment with tat-cyclotraxin-B on spontaneous locomotion, exploration and reactivity to a novel open field was assessed in plexiglas activity chambers (Med Associates; 45×45×31 cm). Mice were placed into the center of the open field, and activity was recorded for 30 min. Testing took place under bright ambient light conditions to increase the anxiety component of the center areas of the field (defined as the central 15×15 cm portion). Mice subjected to EPM received a double 90-interval i.v. injection of tat-cyclotraxin-B or saline buffer before being placed on the platform of the EPM and assessed for 5 min (26×5×36 cm). The diazepam control group consisted of saline buffer double-treated mice that further received a 30-min i.p. injection of diazepam (1 mg/kg). Mice were assessed for number of entries and amount of time spent in open versus closed arms. The FST procedure was applied to treated mice as described by Porsolt et al. (see ref. [60]). Mice were dropped individually into glass cylinder (height, 25 cm; diameter, 10 cm) containing 10 cm water height, maintained at 23–25°C. Animals were tested for a total of 6 min. The total time of swimming, the number of climbing attempts and the time of immobility was recorded during the last 4 min of the session, after 2 min of habituation. The paroxetine control group consisted of saline buffer double-treated mice that further received a 30-min i.p. injection of paroxetine (2 mg/kg). Behaviors were recorded on videotape and scored blind.

mice [3] = assay: Forced swim test (FST); format: in vivo, mouse; details: acute treatment, vs saline
Protocol: as §4

TrkB in brain slices = target: T3, TrkB in brain slices (Mus musculus, UniProt P15209); assay: KIRA-ELISA in brain slices incubated with peptide; format: cell-based; details: peptide added to brain slices
T3 construct: KIRA-ELISA analysis of brain TrkB receptors from mice; from tissue; host or cells: adult Swiss mouse brain, 300-µm coronal slices
Protocol: TrkB activity was quantified using the previously described KIRA-ELISA assay with slight modifications. Cortical neurons were seeded on polyornithin-coated flat-bottom 96-well culture plates (12×10^4 cells per well) and cultured eight days at 37°C in 5% CO2. TetOn-rhTrkB cells were seeded on flat-bottom 96-well culture plates (4×10^4 cells per well) and incubated overnight with 1000 ng/ml doxycycline (Figs. S1,S2) except when indicated. Fluorescence levels in TetOn-rhTrkB cells were verified before each assay. […] Solubilized membranes were transferred for 2 h at room temperature onto ELISA microtiter plate (Nunc Maxisorp) pre-coated overnight at 4°C with appropriate antibodies [polyclonal anti-GFP (1∶5000, Clontech) for TetOn-rhTrkB, polyclonal anti-TrkB (1 µg/ml, Upstate) for cultured neurons and brain slices, for phosphorylation assays; monoclonal anti-GFP (1∶3000, Chemicon) for TetOn-rhTrkB, monoclonal anti-TrkB (1∶1000, BD Biosciences) for cultured neurons and brain slices, for total TrkB quantification]. […] Absorbance was read at 450 nm after addition of 3,3′,5′,5-tetramethyl-benzidine substrate (Sigma) and acidification with 1N hydrochloric acid.

[4] = TrkB + p75NTR co-expressing cortical neurons

T1 sequence (Q16620 32-822): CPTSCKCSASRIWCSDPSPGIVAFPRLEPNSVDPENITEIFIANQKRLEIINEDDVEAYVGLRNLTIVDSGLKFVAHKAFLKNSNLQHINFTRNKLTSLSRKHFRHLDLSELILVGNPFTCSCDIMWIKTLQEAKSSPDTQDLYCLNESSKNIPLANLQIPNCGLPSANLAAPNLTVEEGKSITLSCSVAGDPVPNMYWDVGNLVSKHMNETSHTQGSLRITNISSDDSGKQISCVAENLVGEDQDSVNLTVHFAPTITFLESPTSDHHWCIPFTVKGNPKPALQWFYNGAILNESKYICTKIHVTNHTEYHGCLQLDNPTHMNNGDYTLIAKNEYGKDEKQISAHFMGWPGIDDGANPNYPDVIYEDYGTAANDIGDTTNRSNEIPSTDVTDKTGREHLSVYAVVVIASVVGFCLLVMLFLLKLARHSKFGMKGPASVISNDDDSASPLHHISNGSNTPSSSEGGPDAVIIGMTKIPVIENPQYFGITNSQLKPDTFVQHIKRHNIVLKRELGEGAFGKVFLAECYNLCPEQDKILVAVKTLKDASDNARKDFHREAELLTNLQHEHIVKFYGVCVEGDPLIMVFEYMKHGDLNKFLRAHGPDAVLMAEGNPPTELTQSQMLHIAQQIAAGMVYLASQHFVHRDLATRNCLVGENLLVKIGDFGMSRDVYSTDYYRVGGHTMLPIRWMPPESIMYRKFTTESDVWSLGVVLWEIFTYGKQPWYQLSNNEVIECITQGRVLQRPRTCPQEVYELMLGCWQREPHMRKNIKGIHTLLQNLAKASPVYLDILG
T2 sequence (P15209 32-821): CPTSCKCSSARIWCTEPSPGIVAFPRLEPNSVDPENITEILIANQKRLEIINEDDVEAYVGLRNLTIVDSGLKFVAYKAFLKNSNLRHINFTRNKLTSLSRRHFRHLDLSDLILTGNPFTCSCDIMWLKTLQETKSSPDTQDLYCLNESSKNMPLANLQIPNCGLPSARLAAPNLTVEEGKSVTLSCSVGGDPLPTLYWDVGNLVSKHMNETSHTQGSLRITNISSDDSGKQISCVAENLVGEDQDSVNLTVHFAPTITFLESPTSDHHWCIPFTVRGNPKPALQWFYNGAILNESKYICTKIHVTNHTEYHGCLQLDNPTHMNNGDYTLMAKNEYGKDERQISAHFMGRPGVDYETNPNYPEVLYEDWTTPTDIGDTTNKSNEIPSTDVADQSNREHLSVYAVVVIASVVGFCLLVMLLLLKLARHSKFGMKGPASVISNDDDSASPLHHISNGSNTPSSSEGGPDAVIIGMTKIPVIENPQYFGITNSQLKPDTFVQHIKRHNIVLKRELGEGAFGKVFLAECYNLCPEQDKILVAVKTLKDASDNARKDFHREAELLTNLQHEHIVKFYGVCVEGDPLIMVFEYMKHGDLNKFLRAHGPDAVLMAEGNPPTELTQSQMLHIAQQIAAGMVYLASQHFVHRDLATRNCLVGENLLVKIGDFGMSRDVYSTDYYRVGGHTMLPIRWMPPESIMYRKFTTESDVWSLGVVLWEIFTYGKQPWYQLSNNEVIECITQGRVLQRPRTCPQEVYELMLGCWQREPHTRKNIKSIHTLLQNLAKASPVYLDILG
T3 sequence (P15209 32-821): as above

Question: How did the “reversal of BDNF signal” value (human TrkB receptor; KIRA-ELISA, BDNF 4 nM, TetOn-rhTrkB cells and cortical neurons (Fig. S2)) turn out when `COC(=O)[C@@]1(O)C[C@H]2O[C@]1(C)n1c3ccccc3c3c4c(c5c6ccccc6n2c5c31)C(=O)NC4` [K252a, reference compound] was run?
Answer: fully reversed

Question: What does the source list for `CSCC[C@@H]1NC(=O)[C@@H]2CCCN2C(=O)[C@H](CC(N)=O)NC(=O)[C@@H](N)CSSC[C@@H](C(=O)O)NC(=O)CNC(=O)[C@H](CCC(=O)O)NC(=O)[C@H](CCCCN)NC(=O)[C@H]([C@@H](C)O)NC(=O)[C@H](Cc2ccc(O)cc2)NC(=O)CNC1=O` [cyclotraxin-B] (H-CNPMGYTKEGC-OH; disulfide 1-11; N-terminus and C-terminus assumed)?
Answer: IC50 (human TrkB receptor; with BDNF, read-out: IC50, inhibition of BDNF-induced TrkB activity): 0.3 ± 0.07 nM; IC50 (human TrkB receptor; without BDNF, read-out: IC50, BDNF-independent (basal) TrkB activity): 0.28 ± 0.08 nM; IC50 ([1]; cortical neurons, with BDNF, read-out: IC50, inhibition of BDNF-induced TrkB activity): 0.0671 ± 0.0189 nM; IC50 ([1]; neurons, without BDNF, read-out: IC50, BDNF-independent (basal) TrkB activity): 0.0657 ± 0.0217 nM; cell death (nnr5 PC12 cells): no cell death; IC50 (nnr5 PC12-TrkB cells): 0.0122 ± 0.0085 nM

Question: `C[C@@H]1C[C@H]2[C@@H]3CCC4=CC(=O)C=C[C@]4(C)[C@@]3(F)[C@@H](O)C[C@]2(C)[C@@]1(O)C(=O)CO` [dexamethasone, reference compound] was tested. Which “TrkB phosphorylation (indirect activation)” value ([1]; cortical neurons, 1 µM, 2 h) did it give?
Answer: significantly triggered

Question: `CN1C(=O)CN=C(c2ccccc2)c2cc(Cl)ccc21` [diazepam, reference compound] was tested. Which “EPM number of entries in open arms” value (mice [2]) did it give?
Answer: significantly increased

Question: What about the “EPM time spent in open arms” value (mice [2]) of the same molecule?
Answer: significantly increased

Question: Which FST climbing attempts (mice [3]) does the source give for `Fc1ccc([C@@H]2CCNC[C@H]2COc2ccc3c(c2)OCO3)cc1` [paroxetine, reference compound] here?
Answer: increased

Question: And the “FST time of immobility” value (mice [3])?
Answer: significant decreased

Question: Which results are given for NGF: neurotrophin?
Answer: KIRA-ELISA signal (human TrkB receptor; recombinant cells): did not produce any signal; KIRA-ELISA signal ([1]; neuronal cells): did not produce any signal

Question: What does the source list for NT-3: neurotrophin?
Answer: ratio signal/background (human TrkB receptor): 3.8; EC50 (human TrkB receptor): 0.702 ± 0.134 nM; agonist behaviour at TrkB [1, 4]: partial agonist; ratio signal/background [1, 4]: 1.7; EC50 ([1]; neuronal TrkB receptors): 0.716 ± 0.167 nM

Question: For “YGRKKRRQRRR [tat-empty, reference compound]”, which “TrkB inhibition in brain slices” value (TrkB in brain slices) is on record?
Answer: did not produce any effect

B1: BDNF: neurotrophin, cognate ligand of TrkB; mature recombinant human BDNF (Peprotech) (protein, UniProt P23560 19-247, looked up)
Neurotrophic factor BDNF …: APMKEANIRGQGGLAYPGVRTHGTLESVNGPKAGSRGLTSLADTFEHVIEELLDEDQKVRPNEENNKDADLYTSRVMLSSQVPLEPPLLFLLEEYKNYLDAANMSMRVRRHSDPARRGELSVCDSISEWVTAADKKTAVDMSGGTVTVLEKVPVSKGQLKQYFYETKCNPMGYTKEGCRGIDKRHWNSQCRTTQSYVRALTMDSKKRIGWRFIRIDTSCVCTLTIKRGR
Question: Which ratio signal/background (human TrkB receptor) does the source give for B1 here?
Answer: 3.94

Question: What about the EC50 (human TrkB receptor; agonist alone) of the same molecule?
Answer: 0.672 nM and 0.614 nM

Question: And the EC50 ([1]; cortical neurons, agonist alone)?
Answer: 0.186 nM and 0.208 nM
